Data on one molecule can be found in publication PMC6701825, “Antiproliferative and Antimigratory Effects of a Novel YAP–TEAD Interaction Inhibitor Identified Using in Silico Molecular Docking” (Journal of Medicinal Chemistry, 2019).

The test system of assay [1] is HuVSMC. Put plainly: Real-time IncuCyte scratch wound migration assay in HuVSMC. To be noted: HuVSMC, 0.25, 0.5, 2, and 10 μM. In kind it is cell-based, human. How it is done: Figure 9 Compound 3.1 inhibits TEAD target gene expression, cell proliferation, and cell migration in RaVSMCs. RaVSMCs stably transduced with TEAD-NLUC (A) or transiently transfected with CCN1-LUC or CTGF-LUC were treated with the indicated concentrations of compound 3.1 for 6 hr. Cell conditioned media (A) or cell lysates (B−C) were assayed for nanoluciferase or fire-fly luciferase activity, respectively. VSMC were treated with 60 μM compound 3.1 for 6 h (n = 3). Total RNA was analyzed for mRNA levels of TEAD-target genes (D) or constitutive housekeeping genes (E) by qRT-PCR. VSMC were treated with indicated concentrations of compound 3.1 for 16 hr (n = 4). Total cell lysates were analyzed for CCN1 protein expression by Western blotting (F). RaVSMCs (G) or HuVSMC (H) were treated with indicated concentrations of compound 3.1 for 18 h followed by labeling in 10 μM EdU for a further 6 h (n = 4). RaVSMCs (I) or HuVSMC (J) were treated with indicated concentrations of compound 3.1 and cell migration quantified using IncuCyte real time migration assay (n = 4).
Cell proliferation was measured using the Click-iT EdU 488 assay (Sigma-Aldrich). […] Fluorescent images of at least three fields of view per well were counted using ImageJ software. […] Relative wound confluence was calculated using the Cell Migration Image analysis module of the IncuCyte ZOOM software.

Assay [2] deals with T1, recombinant TEAD1 (residues 194-411) (Homo sapiens, UniProt P28347).
T1 construct: TEAD1 protein (residues 194–411) was prepared by solution cleavage of the GST tag; GST (N, cleaved yes); made in house; host or cells: SoluBL21 Escherichia coli
Put plainly: Saturation transfer difference (STD) NMR binding to TEAD1. To be noted: 2 mM CPD3.1, approximately 20 μM TEAD1. Here is the method:
Figure 6 Saturation transfer difference (STD) NMR analysis of compound 3.1 binding to TEAD1. Saturation-Transfer Difference (STD) NMR spectra showing the binding of CPD3.1 to recombinant TEAD1. (A) reference 1H NMR spectra of a mixture of CPD3.1 and TEAD1. (B) and (C) show the STD spectra of CPD3.1 in the absence and presence of TEAD1. The asterisk indicates buffer components or impurities in the sample. The three spectra were recorded in PBS made up in 40% H2O/60% D2O acquired at 700 MHz. The concentration of CPD3.1 was 2 mM, whereas the final concentration of TEAD1 was approximately 20 μM.
Binding of compounds to human TEAD was performed using STD NMR analysis. Briefly, TEAD1 protein (residues 194–411) was prepared by solution cleavage of the GST tag from recombinant GST–TEAD1 (194–411). GST–TEAD1 protein was eluted from glutathione beads by 40 mM reduced glutathione. GST tag was removed by incubation with PreScission protease (Sigma-Aldrich) at 4 °C for 18 h. Glutathione was removed by dialysis against 1000 volumes of 1× PBS at 4 °C for 4 h. Free GST protein was removed by incubation with glutathione resin. All NMR spectroscopy experiments were performed on a Bruker Avance III HD 700 MHz spectrometer equipped with a 1.7 mm inverse triple-resonance microcryocoil probe. NMR samples were prepared in 40 μL with PBS pH 7.4 in 60% D2O (uncorrected for D2O). […]

T1 sequence (P28347 209-426): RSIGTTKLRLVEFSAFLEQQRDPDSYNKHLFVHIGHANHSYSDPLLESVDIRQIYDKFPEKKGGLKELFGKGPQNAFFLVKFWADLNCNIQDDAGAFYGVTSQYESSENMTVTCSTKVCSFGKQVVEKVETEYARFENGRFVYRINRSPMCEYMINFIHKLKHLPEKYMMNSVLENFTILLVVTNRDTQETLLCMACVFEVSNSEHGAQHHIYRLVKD

In the case of `Cc1ccc2c(c1)c1c3n2CCNC3CCC1` (centres unmarked) [CPD3.1], in assay [1], the “cell migration (scratch wound)” value is recorded as “inhibited in a dose-dependent manner”. The “binding to purified recombinant TEAD protein (STD NMR)” value in assay [2] is “confirmed”.
